# Measurements reported in patent publication US20140336136A1, “Carboxylated Stilbenes For Activating AMPK And Sirtuins” (Rahn AG, priority 2013, published 2014).
# Marks after values point to notes of the source that are not given here.
# Experiments:
# human sirtuin-1 (Sirt1) = molecular target: T1, human sirtuin-1 (Sirt1) (Homo sapiens, UniProt Q96EB6); test: SIRT1 Fluorimetric Drug Discovery Kit, Sirt1 activation; type: biochemical; settings: for Fold increase in sirtl activity versus control: 10 μM, control = trans-resveratrol
# T1 construct: purchased BioMol, Hamburg, Germany
# T1 sequence (Q96EB6 1-747): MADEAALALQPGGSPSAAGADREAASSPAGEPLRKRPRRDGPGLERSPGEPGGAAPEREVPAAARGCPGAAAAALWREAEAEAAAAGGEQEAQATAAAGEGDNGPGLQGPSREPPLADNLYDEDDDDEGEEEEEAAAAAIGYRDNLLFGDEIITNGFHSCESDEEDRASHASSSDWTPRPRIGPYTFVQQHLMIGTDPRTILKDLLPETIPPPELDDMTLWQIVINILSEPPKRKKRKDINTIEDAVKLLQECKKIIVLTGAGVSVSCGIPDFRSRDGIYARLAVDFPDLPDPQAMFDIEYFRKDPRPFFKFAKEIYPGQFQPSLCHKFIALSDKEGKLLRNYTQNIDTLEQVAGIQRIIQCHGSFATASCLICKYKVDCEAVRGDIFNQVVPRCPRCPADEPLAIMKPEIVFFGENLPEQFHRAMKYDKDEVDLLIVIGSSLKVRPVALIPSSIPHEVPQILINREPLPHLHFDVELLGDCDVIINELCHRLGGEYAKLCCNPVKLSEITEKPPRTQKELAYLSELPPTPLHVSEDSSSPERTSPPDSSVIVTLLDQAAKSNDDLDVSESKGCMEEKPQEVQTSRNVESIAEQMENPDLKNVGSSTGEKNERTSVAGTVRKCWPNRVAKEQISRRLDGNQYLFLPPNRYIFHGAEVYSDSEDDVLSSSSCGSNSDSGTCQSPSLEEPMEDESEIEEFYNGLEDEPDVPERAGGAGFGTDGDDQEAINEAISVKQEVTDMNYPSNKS
# Procedure: Compounds were tested for Sirt1 activation using the SIRT1 Fluorimetric Drug Discovery Kit (BioMol, Hamburg, Germany), Testing was carried out in dubplicate following the manufacturer's instructions. Assay medium: 50 mM Tris-HCl pH 8.0, 137 mM NaCl, 2.7 mM KCl, 1 mM MgCl2, 1 mg/ml bovine serum albumin (BSA). Stock solutions of the test compounds (10 mM in DMSO) were used, yielding a final concentration of 10 μM in the assay plate. Readout was obtained by measuring the fluorescence in a microtiter plate reader (excitation: 380 nm; detection: 440 nm).
# For this purpose, the test item stock solutions were diluted to yield concentrations of 0.3, 1, 3, 10 and 30 μM, respectively, in the assay, which was performed as described above. The compound of structure (I-1) was selected for this experiment.
# Quantification using the GraphPad Prism 5.0 software (GraphPad Software, Inc., LaJolla, Calif., USA) led to the following EC300 values (i.e. the concentration that gave 3-times the basal response of the enzyme=activation by a factor of three):
# The selectivity of the agonistic effect of the compound of formula (I-1) on different sirtuin isoforms was investigated. For this purpose, in vitro testing was performed as described in Example 1 using the respective SIRT1 Fluorimetric Drug Discovery Kit, SIRT2 Fluorimetric Drug Discovery Kit, and SIRT3 Fluorimetric Drug Discovery Kit (each from BioMol, Hamburg, Germany). […] The dose-response effect is slightly lesser on Sirt3.
# [1] = system: 5′-AMP-activated protein kinase (AMPK); test: Western blot analysis of AMPK phosphorylation in NHEK; type: cell-based, human; settings: for AMPK phosphorylation [% Control] / Ratio P-AMPK/GAPDH / P-AMPK: 1000 μM; for P-AMPK: 48 h
# [2] = system: normal human epidermal keratinocytes (NHEK); test: MTT reduction cytotoxicity assay in NHEK; type: cell-based; settings: for viability: NHEK
# Procedure: Culture conditions: 37° C., 5% CO2. Culture medium: Keratinocyte-SFM (serum-free medium) containing human recombinant epidermal growth factor (EGF 1-53) 0.25 ng/mL and bovine pituitary extract 25 μg/mL (Gibco; Cat. No. 17005-075), supplemented with gentamycin 25 μg/mL. Assay medium: Keratinocyte-SFM (Gibco; Cat. No. 10744-019), supplemented with gentamycin 25 μg/mL.
# NHEK were seeded in 24-well plates (30.000 cells/well) and cultured in culture medium for 24 h and then in assay medium for another 24 h. Medium was then removed and replaced by assay medium containing the respective test compound or reference in defined concentrations.
# Cytotoxicity was determined using the 3-(4,5-dimethylthiazol-2-yl)-2,5-diphenyltetrazoliumbromid (MTT) reduction assay (sse T. Mosmann (1983) J. Immunol. Methods. 65, pp. 55-63).
# Sirt2 = molecular target: T2, Sirt2 (Homo sapiens, UniProt Q8IXJ6); test: SIRT2 Fluorimetric Drug Discovery Kit, Sirt2 activation; type: biochemical; settings: Example 2, Table 6
# T2 construct: purchased BioMol, Hamburg, Germany
# T2 sequence (Q8IXJ6 1-389): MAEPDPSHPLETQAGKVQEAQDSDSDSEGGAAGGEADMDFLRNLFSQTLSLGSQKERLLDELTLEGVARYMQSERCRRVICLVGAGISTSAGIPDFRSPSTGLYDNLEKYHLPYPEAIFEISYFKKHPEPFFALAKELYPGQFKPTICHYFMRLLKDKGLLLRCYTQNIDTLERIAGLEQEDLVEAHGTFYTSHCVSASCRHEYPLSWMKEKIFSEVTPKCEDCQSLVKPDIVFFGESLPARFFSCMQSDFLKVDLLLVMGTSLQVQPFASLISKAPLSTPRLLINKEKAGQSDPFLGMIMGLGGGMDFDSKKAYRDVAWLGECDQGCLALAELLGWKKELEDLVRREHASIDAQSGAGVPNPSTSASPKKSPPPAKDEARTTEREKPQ
# [3] = system: normal human dermal fibroblasts (NHDF); test: Resazurin based cytotoxicity assay in NHDF; type: cell-based; settings: 24 h and 48 h; 0.03 μM to 200 μM
# Procedure: The effect of compound (I-1) on mitochondria biosynthesis was investigated in normal human dermal fibroblasts (NHDF). NHDF were obtained from PromoCell (Lot No. 006151; donor; from eyelid skin) and cultivated in Fibroblast Growth Medium (PromoCell; Cat. No. C-023020) supplemented with Supplement Mix (PromoCell; Cat. No. C-039215) at 37° C./5% CO2. NHDF were seeded in flat-bottom 96-well plates (5000 cells/well) and incubated in said medium for 24 h or 48 h, respectively, with the compounds present in concentrations ranging from 0.03 μM to 200 μM. Mitochondria content was analyzed using the Mito-ID® Green Detection Kit for fluorescence microscopy (Enzo Life Sciences; Cat. No. ENZ-51055-K500). Fluorometric analysis was done using a Spectramax plate reader (Molecular Devices) and following the manufacturer's protocol. Cytotoxicity was determined in parallel by fluorometric readout using the Resazurin Based In Vitro Toxicology Assay Kit (Sigma Aldrich, Cat. No. TOX-8), and following the manufacturer's protocol.
# Sirt3 = molecular target: T3, Sirt3 (Homo sapiens, UniProt Q9NTG7); test: SIRT3 Fluorimetric Drug Discovery Kit, Sirt3 activation; type: biochemical; settings: Example 2, Table 6
# T3 construct: purchased BioMol, Hamburg, Germany
# T3 sequence (Q9NTG7 1-399): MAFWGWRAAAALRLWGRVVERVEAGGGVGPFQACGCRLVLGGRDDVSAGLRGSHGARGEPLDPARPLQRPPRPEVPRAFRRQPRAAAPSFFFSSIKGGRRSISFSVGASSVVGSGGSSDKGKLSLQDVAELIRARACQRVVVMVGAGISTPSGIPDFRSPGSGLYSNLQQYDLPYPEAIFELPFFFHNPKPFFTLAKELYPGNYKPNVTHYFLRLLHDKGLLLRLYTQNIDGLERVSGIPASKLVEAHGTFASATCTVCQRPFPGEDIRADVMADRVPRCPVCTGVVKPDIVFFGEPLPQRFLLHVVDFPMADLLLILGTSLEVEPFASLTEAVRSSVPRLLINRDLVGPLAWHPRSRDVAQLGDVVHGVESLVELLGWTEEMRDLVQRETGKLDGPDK
# [4] = Example 1, concentration that gave 3-times the basal response of the enzyme
compound,measurement,setting,value
O=C(O)c1c(O)cccc1/C=C/c1ccc(OC2OC(CO)C(O)C(O)C2O)cc1 (centres unmarked) [(I-5)],Fold increase in sirtl activity versus control,human sirtuin-1 (Sirt1),2.7
"NC(=O)c1ncn([C@@H]2O[C@H](CO)[C@@H](O)[C@H]2O)c1N [AICAR, 5-Amino-1-βD-ribofuranosyl-imidazole-4-carboxamide]",AMPK phosphorylation [% Control],"[1]; Experiment 1, Membrane 1",482 % Control
same,Ratio P-AMPK/GAPDH,"[1]; Experiment 1, Membrane 1",2.05
same,P-AMPK,"[1]; Experiment 1, Membrane 1",1060 AU/mm^2
same,AMPK phosphorylation [% Control],[1]; Experiment 2,506 % Control
same,Ratio P-AMPK/GAPDH,[1]; Experiment 2,0.572
same,P-AMPK,[1]; Experiment 2,1377449 AU/mm^2
COC(=O)c1c(/C=C/c2ccc(OC)cc2)cccc1OC [(I-3)],Fold increase in sirtl activity versus control,human sirtuin-1 (Sirt1),1.1
Oc1ccc(/C=C/c2cc(O)cc(O)c2)cc1 [trans-resveratrol],EC300,human sirtuin-1 (Sirt1); [4],> 30 µM
same,EC300,"human sirtuin-1 (Sirt1); Example 2, Table 6, Sirt1",>30 µM
same,viability,[2]; 100 μM,2%
same,viability,[2]; 300 μM,43%
same,EC300,Sirt2,>30 µM
CCOC(=O)c1c(O)cccc1/C=C/c1ccc(OCC)cc1 [(I-1)],cytotoxicity / cell viability in NHDF,[3],no cytotoxicity or loss of cell viability
same,Fold increase in sirtl activity versus control,human sirtuin-1 (Sirt1),23.9
same,EC300,human sirtuin-1 (Sirt1); [4],2.0 µM
same,EC300,"human sirtuin-1 (Sirt1); Example 2, Table 6, Sirt1",12.9 µM
same,EC300,Sirt3,>30* μM
same,AMPK phosphorylation,"[1]; NHEK, 30 μM",significantly enhanced
same,cytotoxicity against NHEK,[2],no cytotoxicity
same,EC300,Sirt2,4.9 µM
O=C(O)c1c(O)cccc1/C=C/c1ccc(O)cc1 [(I-2)],Fold increase in sirtl activity versus control,human sirtuin-1 (Sirt1),4.8
COc1cc(/C=C/c2cccc(O)c2C(=O)O)cc(OC)c1O [(I-4)],Fold increase in sirtl activity versus control,human sirtuin-1 (Sirt1),2.0
